Conditions: Liquid, Closed cell (Static) method

O [water]
Conditions	vapor or sublimation pressure [kPa]
313.16 K	7.46
323.16 K	12.54
333.16 K	20.24
343.16 K	31.54
353.16 K	48.25
363.16 K	70.49
373.16 K	101.98
